The test system of assay [1] is LM8 osteosarcoma cells. Nature of the assay: Orthotopic mouse model of lung metastasis using osteosarcoma LM8 cells with amputation (FIG. 11). The following applies: 0.3 mg/kg SC with amputation on Day 7; Day 34. In kind it is in vivo, mice. As to the method: FIGS. 11A-11C. […] Error bars indicate standard error of the mean. […] Also illustrated in this diagram are the corresponding treatment schedules for SEQ ID NO: 31 and amputation. From tumor implantation, the SEQ ID NO: 31 treated group was dosed SC (0.3 mg/kg/0.1 μmol/kg in buffer) on Days 4-8, 11-15, 18-22, and 25-26. On Day 7 post-inoculation, all mice underwent amputation to remove the primary tumor. In place of treatment, the amputated control group also received buffer on the same days that SEQ ID NO: 31 was administered. Mice were sacrificed on Day 34, and lung tissues were harvested. FIGS. 11B and 11C) Lung tissues were soaked in 4% paraformaldehyde, paraffin-embedded, and sections were stained with hematoxylin and eosin (H&E). Lung images were observed using high-resolution microscopy (Keyence, Tokyo, Japan, #BZ-X700), and lung metastasis was evaluated by the direct count of present metastatic lung nodules. […]
Animal care and treatment: Male […] mice (7 weeks-old) were purchased from Kyudo (Saga, Japan) and maintained under a 12-hour light/12-hour dark cycle with free access to water and standard mouse diet (MF diet; Oriental Yeast Co., Ltd., Tokyo, Japan). […] Lung images were observed using the high-resolution microscopy (Keyence, Tokyo, Japan, #BZ-X700), and lung metastasis was evaluated by the direct count of present metastatic nodules (FIG. 11C). […]

The target of assay [2] is T1, human NPRC (Homo sapiens, UniProt P17342).
T1 construct: NPRC Q1-S434, (GenBank Accn. #NP_001191304.1); made in house; host or cells: Expi293 cells
T1 sequence (P17342 43-476 limits assumed): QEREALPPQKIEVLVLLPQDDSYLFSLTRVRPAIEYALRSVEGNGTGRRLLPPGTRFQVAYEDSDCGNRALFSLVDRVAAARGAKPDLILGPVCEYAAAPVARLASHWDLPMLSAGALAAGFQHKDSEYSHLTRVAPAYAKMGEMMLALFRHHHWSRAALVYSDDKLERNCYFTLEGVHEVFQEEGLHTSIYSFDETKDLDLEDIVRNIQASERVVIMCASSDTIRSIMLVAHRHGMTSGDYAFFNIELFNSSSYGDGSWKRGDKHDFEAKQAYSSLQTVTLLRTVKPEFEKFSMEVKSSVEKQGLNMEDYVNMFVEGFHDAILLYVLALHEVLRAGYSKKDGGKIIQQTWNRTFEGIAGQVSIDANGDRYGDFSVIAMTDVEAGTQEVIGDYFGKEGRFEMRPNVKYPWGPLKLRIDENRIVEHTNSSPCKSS
Nature of the assay: Fluorescence polarization (FP) assay with CNP-F* probe, NPRC. The following applies: 150 nM test article, 5 nM CNP-F*, 50 nM human NPRC. In kind it is binding. As to the method:
Error bars represent standard error of the mean. […] NO.
In the presence of [SEQ ID.
The CNP-F* probe was incubated at a final concentration of 5 nM in the presence of 50 nM human NPRB or NPRC in an assay buffer containing PBS, pH 7.4 and 0.01% Triton X-100. A […] volume of CNP-F* probe and NPR were dispensed into a black 96-well Costar flat-bottom polystyrene plate prior to FP measurement. Next, […] volume of SEQ ID. No. 31 (final concentration 150 nM) was added to the premixed probe and NPR. The plate was incubated at room temperature for 10 min. Fluorescence polarization was then measured on Flexstation 3 (excitation wavelength: 480 nm; emission wavelength: 525 nm and cutoff at 515 nm).
CNP-F* was prepared using solid phase peptide synthesis. […] Next, the crude linear peptide was cleavage with 95% TFA in the presence of carbocation scavengers and ether precipitation.

Bridge positions count the residues as written; N and C are the ends. Square brackets hold non-standard residues; d marks the D form. Peptide text beside a SMILES is read from it. * marks the point of attachment. Palmitoyl = CCCCCCCCCCCCCCCC(=O)*; Dap = NC[C@H](N)C(=O)O; AEEA = NCCOCCOCC(=O)O

As for `CCCCCCCCCCCCCCCC(=O)NCCOCCOCC(=O)NCCOCCOCC(=O)NCCOCCOCC(=O)N[C@@H](CN)C(=O)N[C@@H](CN)C(=O)NCC(=O)N[C@@H](CC(C)C)C(=O)N[C@@H](CO)C(=O)N[C@@H](CCCCN)C(=O)NCC(=O)N[C@H]1CSSC[C@@H](C(=O)O)NC(=O)CNC(=O)[C@H](CC(C)C)NC(=O)CNC(=O)[C@H](CO)NC(=O)[C@H](CCC(N)=O)NC(=O)[C@H](CO)NC(=O)CNC(=O)[C@H]([C@@H](C)CC)NC(=O)[C@H](CCCNC(=N)N)NC(=O)[C@H](CC(=O)O)NC(=O)[C@H](CC(C)C)NC(=O)[C@H](CCCCN)NC(=O)[C@H](CC(C)C)NC(=O)CNC(=O)[C@H](Cc2ccccc2)NC1=O` [SEQ ID NO: 31] ({Palmitoyl-AEEA-AEEA-AEEA}-[Dap][Dap]GLSKGCFGLKLDRIGSQSGLGC-OH; disulfide 8-24; C-terminus assumed), the “Metastatic nodules present in the lung vs amputation alone” value in assay [1] was “significant reduction”. The “Binding to NPRC (FP signal of CNP-F* probe)” value in assay [2] is “low FP signal demonstrates binding”.

Values taken from US20240325544A1, “CATIONIC LIPID FOR COVALENT MODIFICATION OF PEPTIDES” (PharmalN Corporation, priority 2023, published 2024).
